The record followed here is patent US20230089867A1, “CYCLIC PENTAMER COMPOUNDS AS PROPROTEIN CONVERTASE SUBTILISIN/KEXIN TYPE 9 (PCSK9) INHIBITORS FOR THE TREATMENT OF METABOLIC DISORDER” (Novartis AG, priority 2018, published 2023).

In this assay the target is human PCSK9 (Homo sapiens, UniProt Q8NBP7). Description: PCSK9 ligand binding TR-FRET assay (interference with binding of human PCSK9 to human LDLR). To be noted: for Max % inhibition: PCSK9 FRET assay, efficacy (Amax), 100% = 1 uM unlabeled human PCSK9, 0% = DMSO; for IC50: TR-FRET, human PCSK9 Alexa Fluor 647 / human LDLR extracellular domain-Europium Kryptate, read-out: PCSK9 FRET Assay IC50. A digest of the protocol:
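Threefold compound dilutions were pre-incubated 30 min with PCSK9, after which 4 nM Europium Kryptate-tagged human LDLR ectodomain was added for a further 2 h.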
A general note: In TR-FRET formats the signal depends on donor and acceptor labels being close together.

Sequence of human PCSK9 (Q8NBP7 153-692): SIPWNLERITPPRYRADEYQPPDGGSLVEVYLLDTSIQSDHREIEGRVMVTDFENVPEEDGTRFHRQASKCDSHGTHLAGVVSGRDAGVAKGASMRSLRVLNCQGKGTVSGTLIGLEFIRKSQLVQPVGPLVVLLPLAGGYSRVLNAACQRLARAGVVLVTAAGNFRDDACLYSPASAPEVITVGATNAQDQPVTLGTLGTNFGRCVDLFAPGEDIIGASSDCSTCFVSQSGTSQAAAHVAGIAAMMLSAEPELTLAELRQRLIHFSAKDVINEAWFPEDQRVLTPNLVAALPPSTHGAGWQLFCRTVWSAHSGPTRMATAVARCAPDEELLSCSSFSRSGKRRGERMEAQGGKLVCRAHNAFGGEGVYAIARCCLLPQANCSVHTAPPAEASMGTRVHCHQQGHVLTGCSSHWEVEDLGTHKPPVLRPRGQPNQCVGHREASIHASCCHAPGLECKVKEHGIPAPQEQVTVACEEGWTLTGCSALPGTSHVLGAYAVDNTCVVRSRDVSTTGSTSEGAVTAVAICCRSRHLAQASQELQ
Sequence of human PCSK9 (Q8NBP7 31-152 partner limits assumed): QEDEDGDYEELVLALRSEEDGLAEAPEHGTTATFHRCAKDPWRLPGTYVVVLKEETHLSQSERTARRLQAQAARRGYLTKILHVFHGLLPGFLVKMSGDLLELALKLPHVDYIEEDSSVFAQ

Turning to `COC[C@@H]1NC(=O)[C@H](C)N(Cc2ccc(Cl)cc2Oc2ccc(-c3cnc(CN(C)C)n3C)cc2)C(=O)CCC(=O)N(C)CCNC(=O)C[C@H](Cc2ccc(Cl)cc2)N(C)C1=O` [Compound 141, (2S,5S,8S)-1-(4-chloro-2-(4-(2-((dimethylamino)methyl)-1-methyl-1H-imidazol-5-yl)phenoxy)benzyl)-8-(4-chlorobenzyl)-5-(methoxymethyl)-2,7,14-trimethyl-1,4,7,11,14-pentaazacyclooctadecane-3,6,10,15,18-pentaone], the Max % inhibition came out at 102.37% and the half-maximal inhibitory concentration (IC50) (commonly the concentration that gives 50% inhibition) was found to be 882 nM.
As to `C[C@H]1CNC(=O)C[C@H](Cc2ccc(Cl)cc2)N(C)C(=O)[C@H](CO)NC(=O)[C@H](C)N(Cc2ccc(Cl)cc2Oc2ccc(-c3cnc(CN(C)C)n3C)cc2)C(=O)C[C@@H](Cc2ccccc2)C(=O)N1C` [Compound 142, (2S,5S,8S,13S,16R)-16-benzyl-1-(4-chloro-2-(4-(2-((dimethylamino)methyl)-1-methyl-1H-imidazol-5-yl)phenoxy)benzyl)-8-(4-chlorobenzyl)-5-(hydroxymethyl)-2,7,13,14-tetramethyl-1,4,7,11,14-pentaazacyclooctadecane-3,6,10,15,18-pentaone], the Max % inhibition came to 100.91% and the IC50 worked out at 1.2 nM.
As for `COC[C@@H]1NC(=O)[C@H](C)N(Cc2ccc(Cl)cc2Oc2ccc(-c3cnc(CN(C)C)n3C)cc2)C(=O)C[C@@H](Cc2ccccc2)C(=O)N(C)C2(CC2)CNC(=O)C[C@H](Cc2ccc(Cl)cc2)N(C)C1=O` [Compound 144, (6R,10S,13S,16S)-6-benzyl-9-(4-chloro-2-(4-(2-((dimethylamino)methyl)-1-methyl-1H-imidazol-5-yl)phenoxy)benzyl)-16-(4-chlorobenzyl)-13-(methoxymethyl)-4,10,15-trimethyl-4,9,12,15,19-pentaazaspiro[2.17]icosane-5,8,11,14,18-pentaone], the Max % inhibition was 100.34% and the IC50 was 7 nM.
With `COC[C@@H]1NC(=O)[C@H](C)N(Cc2ccc(Cl)cc2Oc2ccc(-c3cnc(CN(C)C)n3C)cc2)C(=O)C[C@@H](Cc2ccccc2)C(=O)N(C)[C@H]2CCCC[C@@H]2NC(=O)C[C@H](Cc2ccc(Cl)cc2)N(C)C1=O` [Compound 145, (4S,7S,10S,14R,16aS,20aS)-14-benzyl-11-(4-chloro-2-(4-(2-((dimethylamino)methyl)-1-methyl-1H-imidazol-5-yl)phenoxy)benzyl)-4-(4-chlorobenzyl)-7-(methoxymethyl)-5,10,16-trimethylhexadecahydrobenzo[l][1,4,7,11,14]pentaazacyclooctadecine-2,6,9,12,15(3H)-pentaone], the Max % inhibition turned out to be 102.40% and the IC50 came to 1.1 nM.
For `Cc1c(CN2CCCC2)cncc1-c1ccc(Oc2cc(Cl)ccc2CN2C(=O)C[C@@H](Cc3ccccc3)C(=O)N(C)[C@@H](C)CNC(=O)C[C@H](Cc3ccc(Cl)cc3)N(C)C(=O)[C@H](CO)NC(=O)[C@@H]2C)cc1` [Compound 146, (2S,5S,8S,13S,16R)-16-benzyl-1-(4-chloro-2-(4-(4-methyl-5-(pyrrolidin-1-ylmethyl)pyridin-3-yl)phenoxy)benzyl)-8-(4-chlorobenzyl)-5-(hydroxymethyl)-2,7,13,14-tetramethyl-1,4,7,11,14-pentaazacyclooctadecane-3,6,10,15,18-pentaone], the Max % inhibition was found to be 51.67% and the IC50 is 3.1 nM.
Turning to `C[C@H]1CNC(=O)C[C@H](Cc2ccc(Cl)cc2)N(C)C(=O)[C@H](Cc2nnn[nH]2)NC(=O)[C@H](C)N(Cc2ccc(Cl)cc2Oc2ccc(-c3cnc(CN(C)C)n3C)cc2)C(=O)C[C@@H](Cc2ccccc2)C(=O)N1C` [Compound 148, (2S,5S,8S,13S,16R)-5-((1H-tetrazol-5-yl)methyl)-16-benzyl-1-(4-chloro-2-(4-(2-((dimethylamino)methyl)-1-methyl-1H-imidazol-5-yl)phenoxy)benzyl)-8-(4-chlorobenzyl)-2,7,13,14-tetramethyl-1,4,7,11,14-pentaazacyclooctadecane-3,6,10,15,18-pentaone], the Max % inhibition was 94.67% and the IC50 was 29.2 nM.
The matching figures for `CCOC(=O)c1ncn(-c2ccc(Oc3cc(Cl)ccc3CN3C(=O)C[C@@H](Cc4ccccc4)C(=O)N(C)[C@@H](C)CNC(=O)C[C@H](Cc4ccc(Cl)cc4)N(C)C(=O)[C@H](COC)NC(=O)[C@@H]3C)cc2)c1C` [Compound 149, ethyl 1-(4-(2-(((2S,5S,8S,13S,16R)-16-benzyl-8-(4-chlorobenzyl)-5-(methoxymethyl)-2,7,13,14-tetramethyl-3,6,10,15,18-pentaoxo-1,4,7,11,14-pentaazacyclooctadecan-1-yl)methyl)-5-chlorophenoxy)phenyl)-5-methyl-1H-imidazole-4-carboxylate]: 72.43% and 18.7 nM.
Take `CCc1ccc(CN2C(=O)C[C@@H](Cc3ccccc3)C(=O)N(C)[C@@H](C)CNC(=O)C[C@H](Cc3ccc(Cl)cc3)N(C)C(=O)[C@H](COC)NC(=O)[C@@H]2C)c(Oc2ccc(-c3cnc(CN4CCCC4)n3C)cc2)c1.Cl` [Compound 150, (2S,5S,8S,13S,16R)-16-benzyl-8-(4-chlorobenzyl)-1-(4-ethyl-2-(4-(1-methyl-2-(pyrrolidin-1-ylmethyl)-1H-imidazol-5-yl)phenoxy)benzyl)-5-(methoxymethyl)-2,7,13,14-tetramethyl-1,4,7,11,14-pentaazacyclooctadecane-3,6,10,15,18-pentaone hydrochloride]: the Max % inhibition came out at 104.13% and the IC50 stood at 0.8 nM.
With `CCC(O)c1ncc(-c2ccc(Oc3cc(Cl)ccc3CN3C(=O)C[C@@H](Cc4ccccc4)C(=O)N(C)[C@@H](C)CNC(=O)C[C@H](Cc4ccc(Cl)cc4)N(C)C(=O)[C@H](COC)NC(=O)[C@@H]3C)cc2)n1C` (stereo partly drawn) [Compound 151, (2S,5S,8S,13S,16R)-16-benzyl-1-(4-chloro-2-(4-(2-(1-hydroxypropyl)-1-methyl-1H-imidazol-5-yl)phenoxy)benzyl)-8-(4-chlorobenzyl)-5-(methoxymethyl)-2,7,13,14-tetramethyl-1,4,7,11,14-pentaazacyclooctadecane-3,6,10,15,18-pentaone], the Max % inhibition is reported as 64.23% and the IC50 was 8.8 nM.
As for `COC[C@@H]1NC(=O)[C@H](C)N(Cc2ccc(Cl)cc2Oc2ccc(-c3cnc([C@@H](C)N4CCCC4)n3C)cc2)C(=O)C[C@@H](Cc2ccccc2)C(=O)N(C)[C@H]2CCCC[C@@H]2NC(=O)C[C@H](Cc2ccc(Cl)cc2)N(C)C1=O` [Compound 152, (4S,7S,10S,14R,16aS,20aS)-14-benzyl-11-(4-chloro-2-(4-(1-methyl-2-((R)-1-(pyrrolidin-1-yl)ethyl)-1H-imidazol-5-yl)phenoxy)benzyl)-4-(4-chlorobenzyl)-7-(methoxymethyl)-5,10,16-trimethylhexadecahydrobenzo[l][1,4,7,11,14]pentaazacyclooctadecine-2,6,9,12,15(3H)-pentaone], the Max % inhibition is 107.64% and the IC50 turned out to be 1.2 nM.
As for `COC[C@@H]1NC(=O)[C@H](C)N(Cc2c(OC)cccc2Oc2ccc(-c3cnc(CN(C)C)n3C)cc2)C(=O)C[C@@H](Cc2ccccc2)C(=O)N(C)[C@@H](C)CNC(=O)C[C@H](Cc2ccc(Cl)cc2)N(C)C1=O` [Compound 154, (2S,5S,8S,13S,16R)-16-benzyl-8-(4-chlorobenzyl)-1-(2-(4-(2-((dimethylamino)methyl)-1-methyl-1H-imidazol-5-yl)phenoxy)-6-methoxybenzyl)-5-(methoxymethyl)-2,7,13,14-tetramethyl-1,4,7,11,14-pentaazacyclooctadecane-3,6,10,15,18-pentaone], the Max % inhibition came out at 80.05% and the IC50 was found to be 5.1 nM.
Take `COC[C@@H]1NC(=O)[C@H](C)N(Cc2ccc(Cl)cc2Oc2ccc(-c3cnc(CN4CCCC4)n3C)cc2)C(=O)C[C@@H](Cc2cccc(F)c2)C(=O)N(C)[C@@H](C)CNC(=O)C[C@H](Cc2ccc(Cl)cc2)N(C)C1=O` [Compound 155, (2S,5S,8S,13S,16R)-1-(4-chloro-2-(4-(1-methyl-2-(pyrrolidin-1-ylmethyl)-1H-imidazol-5-yl)phenoxy)benzyl)-8-(4-chlorobenzyl)-16-(3-fluorobenzyl)-5-(methoxymethyl)-2,7,13,14-tetramethyl-1,4,7,11,14-pentaazacyclooctadecane-3,6,10,15,18-pentaone]: the Max % inhibition was 98.43% and the IC50 is 0.8 nM.
As to `COCC[C@H]1C(=O)N[C@@H](COC)C(=O)N(C)[C@@H](Cc2ccc(Cl)cc2)CC(=O)NC[C@H](C)N(C)C(=O)[C@H](Cc2ccccc2)CC(=O)N1Cc1ccc(Cl)cc1Oc1ccc(-c2cnc(CN(C)C)n2C)cc1` [Compound 156, (2S,5S,8S,13S,16R)-16-benzyl-1-(4-chloro-2-(4-(2-((dimethylamino)methyl)-1-methyl-1H-imidazol-5-yl)phenoxy)benzyl)-8-(4-chlorobenzyl)-2-(2-methoxyethyl)-5-(methoxymethyl)-7,13,14-trimethyl-1,4,7,11,14-pentaazacyclooctadecane-3,6,10,15,18-pentaone], the Max % inhibition turned out to be 108.38% and the IC50 was found to be 3.7 nM.
Turning to `COC[C@@H]1NC(=O)[C@H](C)N(Cc2ccc(Cl)cc2Oc2ccc(-c3cnc(CN4CC5(COC5)C4)n3C)cc2)C(=O)C[C@@H](Cc2ccccc2)C(=O)N(C)[C@H]2CCCC[C@@H]2NC(=O)C[C@H](Cc2ccc(Cl)cc2)N(C)C1=O` [Compound 157, (4S,7S,10S,14R,16aS,20aS)-11-(2-(4-(2-(2-oxa-6-azaspiro[3.3]heptan-6-ylmethyl)-1-methyl-1H-imidazol-5-yl)phenoxy)-4-chlorobenzyl)-14-benzyl-4-(4-chlorobenzyl)-7-(methoxymethyl)-5,10,16-trimethylhexadecahydrobenzo[l][1,4,7,11,14]pentaazacyclooctadecine-2,6,9,12,15(3H)-pentaone], the Max % inhibition stood at 89.28% and the IC50 is 1.8 nM.
